Like-named read-outs stand apart in the source and are kept apart here.
Experiments:
[1] = PAMPA Permeability; type: in vitro ADME
[2] = target: HCV cap-independent translation; assay: In vitro translation assay, FF-HCV-Ren construct, cap-independent (Ren luciferase); type: biochemical, rabbit reticulocyte lysates
Method in brief: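 Rabbit reticulocyte lysate with -Met/-Leu translation mixes (1:1) was pre-incubated with compounds 1 h at room temperature, then programmed with 0.1 μg bicistronic RNA per well and translated 2 h at 30° C. FF luciferase (cap-dependent) and then Ren luciferase (IRES-driven) were read by Dual-Glo luminescence.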

[3] = system: E1A/RAS-transformed 4E-BP DKO MEFs; assay: Proliferation of E1A/Ras-transformed MEFs (BrdUrd incorporation); type: cell-based; conditions: 48 hours
Procedure: E1A/Ras-transformed WT or 4e-bp1/4e-bp2 DKO MEFs were treated with either Torin1 or Compound 38 at indicated concentrations and cell proliferation was measured 48 hours later with the aid of BrdUrd incorporation. Values were normalized to DMSO-treated triplicates. Error bars, SD (n=3).

[4] = target: T1, eIF4F complex (Homo sapiens, UniProt Q04637); assay: m7GTP pull-down assay, BRAFi-sensitive and -resistant melanoma cells; type: cell-based
T1 construct: PLX4032), or Compound 38; endogenous in cells; host or cells: A375, A375R, Lu1205R, WM793R melanoma cells
Procedure: (§1) As previously described (Dowling R J, et al. mTORC1-mediated cell proliferation, but not cell growth, controlled by the 4E-BPs. Science. 2010; 328:1172-6), cells growing in 100 mm plates were washed (cold PBS), collected, and lysed in 50 mM MOPS/KOH (7.4), 100 mM NaCl, 50 mM NaF, 2 mM EDTA, 2 mM EGTA, 1% NP40, 1% Na-DOC, 7 mM β-mercaptoethanol, protease inhibitors and phosphatase inhibitor cocktail (Roche). Lysates were incubated with m7-GDP-agarose beads (Jena Bioscience) for 20 minutes, washed 4 times with the washing buffer containing 50 mM MOPS/KOH (7.4), 100 mM NaCl, 50 mM NaF, 0.5 mM EDTA, 0.5 mM EGTA, 7 mM (3-mercaptoethanol, 0.5 mM PMSF, 1 mM Na3VO4 and 0.1 mM GTP, and bound proteins were eluted by boiling the beads in loading buffer. m7-GDP-agarose pulled down material was analyzed by Western blot analysis.
As levels of the eIF4F complex inversely correlate with the effectiveness of various cancer therapies, the integrity of the eIF4F complex after treating melanoma cells with a combination of BRAFi vemurafenib (PLX4032) and Compound 38 was assessed. […] A375 and A375R (PLX4032-resistant) cells were treated with vehicle (DMSO), a BRAFi (vemurafenib; PLX4032), or Compound 38 at the indicated doses for 24 hours. Cell lysates ([…]) were subjected to m^7GTP pull-down. Amounts of the indicated proteins in input (5%) or pull-down (50%) samples were determined by Western blotting; 3-actin served as a loading control (input) and to exclude contamination (m^7GTP pull-down).

[5] = system: WM1346 (NRAS mutant) cell line; assay: Reverse phase protein array analysis (RPPA), WM1346; type: cell-based, human; conditions: WM1346, 1 μM, 24 h
Procedure: UACC903 and WM1346 cells were treated with DMSO (controls) or 1 μM Compound 38 for 24 h in triplicate. Cells were lysed with lysis buffer (1% Triton X-100, 50 mM HEPES, pH 7.4, 150 mM NaCl, 1.5 mM MgCl2, 1 mM EGTA, 100 mM NaF, 10 mM Na pyrophosphate, 1 mM Na3VO4, 10% glycerol, with freshly added protease and phosphatase inhibitors) and centrifuged at 13,000 g for 20 minutes. Denatured protein lysates containing the same amount of protein were then subjected to RPPA analysis at the RPPA Core Facility, Md. Anderson Cancer Center, as previously described (Tibes. R., et al. Reverse phase protein array: validation of a novel proteomic technology and utility for analysis of primary leukemia specimens and hematopoietic stem cells. Molecular cancer therapeutics 5, 2512-2521 (2006)),
A reverse phase protein array (RPPA) analysis of BRAF- and NRAS-mutant melanomas was performed to identify protein networks affected by Compound 38 (Table 4).

[6] = target: T2, eIF4F complex (Mus musculus, UniProt Q6NZJ6); assay: m7GTP pull-down assay, WT or 4E-BP DKO MEFs; type: cell-based; conditions: 6 hours, Torin1 250 nmol/L
T2 construct: endogenous in cells; host or cells: WT and 4E-BP1/2 double-knock-out MEFs
Procedure: as §1
Indicated cultures (WT or DKO 4E-BP) were treated with Torin1 (250 nmol/L) or indicated Compound 38 concentrations for 6 hours. Western blots show respective protein levels in total cell lysates or following pull-down using m^7GTP agarose beads. […] P3-Actin served as a loading control and to exclude contamination in m^7GTP pull-down.

T2 sequence (Q6NZJ6 whole entry, one chain of several): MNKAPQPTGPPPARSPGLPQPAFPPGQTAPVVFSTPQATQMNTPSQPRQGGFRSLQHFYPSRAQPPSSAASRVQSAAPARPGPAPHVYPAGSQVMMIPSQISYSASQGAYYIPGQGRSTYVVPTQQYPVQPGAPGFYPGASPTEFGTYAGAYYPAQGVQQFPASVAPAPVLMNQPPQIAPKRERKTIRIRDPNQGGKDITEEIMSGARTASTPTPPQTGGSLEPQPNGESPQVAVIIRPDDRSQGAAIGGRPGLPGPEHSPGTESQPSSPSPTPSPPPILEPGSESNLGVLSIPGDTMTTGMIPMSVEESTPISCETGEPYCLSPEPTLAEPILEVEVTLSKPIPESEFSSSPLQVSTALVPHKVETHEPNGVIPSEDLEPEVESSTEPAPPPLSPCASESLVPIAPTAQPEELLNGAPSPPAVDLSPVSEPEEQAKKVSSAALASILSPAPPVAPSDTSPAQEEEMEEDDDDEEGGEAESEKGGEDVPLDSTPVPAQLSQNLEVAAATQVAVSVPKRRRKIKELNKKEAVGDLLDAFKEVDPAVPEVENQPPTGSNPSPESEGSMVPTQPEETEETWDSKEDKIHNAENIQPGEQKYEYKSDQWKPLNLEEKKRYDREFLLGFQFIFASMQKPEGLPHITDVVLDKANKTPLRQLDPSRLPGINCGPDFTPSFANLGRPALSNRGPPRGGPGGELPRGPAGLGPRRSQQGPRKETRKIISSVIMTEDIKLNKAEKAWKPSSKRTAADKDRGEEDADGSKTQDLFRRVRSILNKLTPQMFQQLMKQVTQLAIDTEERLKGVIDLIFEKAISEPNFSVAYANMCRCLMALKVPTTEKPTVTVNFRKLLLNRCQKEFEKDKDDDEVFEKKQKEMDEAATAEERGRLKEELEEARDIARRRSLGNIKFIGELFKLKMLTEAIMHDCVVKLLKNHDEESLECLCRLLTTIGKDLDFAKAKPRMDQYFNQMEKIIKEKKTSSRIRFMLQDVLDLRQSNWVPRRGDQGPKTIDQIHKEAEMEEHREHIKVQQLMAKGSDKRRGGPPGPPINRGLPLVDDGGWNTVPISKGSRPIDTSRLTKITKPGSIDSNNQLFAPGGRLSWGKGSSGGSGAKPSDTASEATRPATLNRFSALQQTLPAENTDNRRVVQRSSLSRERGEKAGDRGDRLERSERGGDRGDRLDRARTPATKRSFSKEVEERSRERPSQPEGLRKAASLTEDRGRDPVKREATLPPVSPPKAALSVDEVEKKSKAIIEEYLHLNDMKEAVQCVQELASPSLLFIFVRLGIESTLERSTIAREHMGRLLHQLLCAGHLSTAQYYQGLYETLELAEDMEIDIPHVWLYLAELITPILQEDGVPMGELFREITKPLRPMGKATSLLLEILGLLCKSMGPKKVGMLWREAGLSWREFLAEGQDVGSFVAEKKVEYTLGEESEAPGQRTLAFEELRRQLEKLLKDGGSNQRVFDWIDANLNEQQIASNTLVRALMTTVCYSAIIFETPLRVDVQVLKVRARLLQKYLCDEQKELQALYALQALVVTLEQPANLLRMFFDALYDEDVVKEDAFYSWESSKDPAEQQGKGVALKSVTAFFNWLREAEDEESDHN

Structure (SMILES): O=C(/C=C/c1cncc(F)c1)c1c(-c2ccccc2)c2cc(Cl)ccc2[nH]c1=O [Compound 38, 6-Chloro-3-[3-(5-fluoro-pyridin-3-yl)-acryloyl]-4-phenyl-1H-quinolin-2-one]
- Papp ([1]; Donor pH 5.0, Acceptor pH 7.4, read-out: PAMPA Permeability, Pe, Donor pH 5.0): 1110 ×10⁻⁶ cm/s
- Papp ([1]; Donor pH 6.2, Acceptor pH 7.4, read-out: PAMPA Permeability, Pe, Donor pH 6.2): 1150 ×10⁻⁶ cm/s
- Papp ([1]; pH 7.4, Donor pH 7.4, Acceptor pH 7.4, read-out: PAMPA Permeability, Pe, Donor pH 7.4): 820 ×10⁻⁶ cm/s
- IC50 [2]: 2 to 10 µM
- proliferation of E1A/RAS-transformed 4E-BP DKO MEFs [3]: attenuated the proliferation
- dissociation of eIF4G1 from eIF4E in BRAFi-resistant cells ([4]; A375R, Lu1205R and WM793R cells): significantly promoted a dose dependent dissociation of eIF4G1 from eIF4E
- eIF4G1 association with eIF4E ([4]; A375 and A375R, 24 hours): more robust effect
- amount of eIF4G1 bound to eIF4E, Compound 38/BRAFi combination ([4]; combination with BRAFi PLX4032, not seen following BRAFi treatment alone): decreased the amount of eIF4G1 bound to eIF4E
- Ratio [Compound 38/DMSO] A-Raf [5]: 0.90
- Ratio [Compound 38/DMSO] AR [5]: 0.72
- Ratio [Compound 38/DMSO] ATM [5]: 0.82
- Ratio [Compound 38/DMSO] ATR [5]: 0.76
- Ratio [Compound 38/DMSO] BRCA2 [5]: 0.90
- Ratio [Compound 38/DMSO] C-Raf [5]: 0.93
- Ratio [Compound 38/DMSO] Chk1 [5]: 0.94
- Ratio [Compound 38/DMSO] Ets-1 [5]: 0.91
- Ratio [Compound 38/DMSO] GCN5L2 [5]: 0.86
- Ratio [Compound 38/DMSO] INPP4b [5]: 0.88
- Ratio [Compound 38/DMSO] MSH6 [5]: 0.78
- Ratio [Compound 38/DMSO] PI3K-p85 [5]: 0.96
- Ratio [Compound 38/DMSO] PI3K-p110-alpha [5]: 0.95
- Ratio [Compound 38/DMSO] Rad51 [5]: 0.78
- Ratio [Compound 38/DMSO] Raptor [5]: 0.87
- Ratio [Compound 38/DMSO] Rictor_pT1135 [5]: 0.91
- Ratio [Compound 38/DMSO] S6_pS235_S236 [5]: 0.70
- Ratio [Compound 38/DMSO] S6_pS240_S244 [5]: 0.65
- Ratio [Compound 38/DMSO] Stat5a [5]: 0.67
- Ratio [Compound 38/DMSO] Tuberin [5]: 0.68
- Ratio [Compound 38/DMSO] YB1 [5]: 0.69
- Ratio [Compound 38/DMSO] c-Kit [5]: 0.94
- Ratio [Compound 38/DMSO] c-Myc [5]: 0.80
- Ratio [Compound 38/DMSO] mTOR [5]: 0.71
- Ratio [Compound 38/DMSO] mTOR_pS2448 [5]: 0.76
- Ratio [Compound 38/DMSO] p70-S6K_pT389 [5]: 0.81
- eIF4G1:eIF4E association (m7GTP pull-down) [6]: reduced eIF4G1:eIF4E association in both WT and 4E-BP DKO MEFs

From patent US10577349B2 (Sanford Burnham Prebys Medical Discovery Institute, priority 2015, dated 2020)
